SMILES strings stand for the structures. Numbers after ± are expanded uncertainties.

The nature of data set [1]: refractive index (Na D-line) (dimensionless). To be noted: 293.2 K; 101.33 kPa; Liquid; Standard Abbe refractometry.
The conditions of data set [2]: 293.2 K; 101.33 kPa; Liquid; Vibrating tube method.

Consider `CCCCCO` [pentan-1-ol], for which the refractive index in data set [1] is 1.41 ± 0.0005. The mass density in data set [2] was determined as 813.98 ± 0.26 kg/m3.

For the compound `O=CO` [formic acid], the refractive index in data set [1] was 1.3711 ± 0.0005. The mass density in data set [2] was 1219.5 ± 0.4 kg/m3.

As to `CCCCCCCO` [heptan-1-ol], the refractive index in data set [1] was found to be 1.4244 ± 0.0005. Also, the mass density in data set [2] worked out at 821.63 ± 0.26 kg/m3.

As to `CCCCO` [butan-1-ol], the refractive index in data set [1] was determined as 1.3983 ± 0.0005. In addition, the mass density in data set [2] is listed as 809.33 ± 0.26 kg/m3.

Take `CCCCCCO` [hexan-1-ol]: in data set [1], the refractive index was 1.4181 ± 0.0005. The mass density in data set [2] is 818.21 ± 0.26 kg/m3.

As for `O` [water], the refractive index in data set [1] is 1.3328 ± 0.0005.

By refractive index is commonly meant a measure of how strongly the sample bends light. By mass density is commonly meant mass per unit of volume.
